The values below come from the NIST ThermoML archive (doi:10.1016/j.jct.2007.11.006).

± gives the expanded uncertainty stated by the source.

As usually defined, the mass density is the mass of a sample divided by its volume.

The conditions of data set [1]: Crystal.
A short description of data set [2]: Molar enthalpy of transition or fusion. As to conditions: Crystal; DSC.
The nature of data set [3]: molar enthalpy of vaporization or sublimation. As to conditions: 298.15 K; Crystal; Drop sublimation at initial T = 411 K and adjusted to 298.15 K.

For `COc1cc(O)cc(OC)c1OC` [3,4,5-trimethoxyphenol], the mass density in data set [1] (298.1 K, 101.33 kPa, mass of pellet and dimensions) was 1080 ± 10 kg/m3. In addition, in data set [1] (DTA), the Normal melting temperature was determined as 147.02 ± 0.43 °C. Further, in data set [2], the “Molar enthalpy of transition or fusion” value was found to be 31.9 ± 2.7 kJ/mol. Besides, in data set [3], the molar enthalpy was determined as 125 ± 6.2 kJ/mol.
